Each block holds one compound with its values, some of them ahead of it.
Assays:
[1] = tested on: IL-4 secretion by Th2 cells; assay: IL-4 secretion by Th2 cells derived from BALB/c mice (ELISA); format: cell-based; conditions: 3 days; for secretion of pro-inflammatory IL-4 by Th2 cells: 2.3 μM, vs vehicle (0.5% DMSO)
Procedure: Given that Th2 cells mediate the immunological effects of asthma in humans and animals, we tested the effects of cyclo Tyr-Val on Th2 cells in culture. Naive T cells were isolated from BALB/c mice, and the cells were incubated in a culture medium containing anti-CD3 antibody (2 μg/ml), anti-CD28 antibody (2 μg/ml), anti-interferon-γ (IFN-γ) antibody (10 μg/ml), and IL-4 (10 ng/ml) in order to induce T cell differentiation into Th2 cells. The Th2 cells were treated for 3 days with 2.3 μM of cyclo Tyr-Val, cyclo alanine-isoleucine (cyclo Ala-Ile), cyclo alanine-leucine (cyclo Ala-Leu), cyclo tyrosine-leucine (cyclo Tyr-Leu), cyclo alanine-phenylalanine (cyclo Ala-Phe), or cyclo tyrosine-isoleucine (cyclo Tyr-Ile), and IL-4 protein level was measured using an enzyme-linked immunosorbent assay (ELISA) kit (eBioscience, USA).
(§1) We confirmed that cyclo Tyr-Val inhibits IL-4 secretion by Th2 cells. Th2 cells isolated from BALB/c or C57BL/6J mice were either left untreated or treated for 3 days with the vehicle (0.5% DMSO in saline) or various concentrations of cyclo Tyr-Val, followed by detection of IL-4 production using ELISA.
(§2) The effects of cyclo Tyr-Val on the secretion of other pro-inflammatory cytokines were investigated. […] As shown in FIGS. 4A-4C, cyclo Tyr-Val inhibited not only the secretion of IL-4, but also that of IL-5 and IL-13.

[2] = tested on: IL-4 secretion by Th2 cells; assay: IL-4 secretion by Th2 cells derived from C57BL/6J mice (ELISA); format: cell-based; conditions: 3 days
Source text: as §1

Th2 cells = assay: Viability of Th2 cells (WST-1 kit); format: cell-based, BALB/c mice; conditions: 0.018-285.932 μM, 3 days
Procedure: Experiments were performed to examine the effects of cyclo Tyr-Val on cell viability. Th2 cells isolated from BALB/c mice were either left untreated or treated for 3 days with the vehicle (0.5% DMSO in saline) or cyclo Tyr-Val at a concentration of 0.018, 0.091, 0.457, 2.287, 11.438, 57.186, or 285.932 μM. The viability of these cells was assessed using the WST-1 kit (Roche, Switzerland) according to the manufacturer's instructions.

[3] = tested on: IL-5 secretion by Th2 cells; assay: IL-5 secretion by Th2 cells derived from BALB/c mice (ELISA); format: cell-based; conditions: 0.25 μM, 3 days
Source text: as §2

[4] = tested on: IL-13 secretion by Th2 cells; assay: IL-13 secretion by Th2 cells derived from BALB/c mice (ELISA); format: cell-based; conditions: 0.25 μM, 3 days
Source text: as §2

[5] = tested on: OVA-induced asthmatic mice; assay: OVA-induced airway hyperresponsiveness (Penh, whole-body plethysmography, methacholine); format: in vivo, BALB/c mice; conditions: IP 0.11304-113.04 nmol/kg per day, day 21 to 27, methacholine 0-40 mg/ml
Procedure: Given that asthma is characterized by hyperresponsiveness to airway stimulants, we examined the effect of cyclo Tyr-Val on AHR in the OVA-induced asthmatic mice stimulated with the exemplary antigen OVA and methacholine (Mch). BALB/c mice were treated intraperitoneally with 50 μg of OVA (Sigma, USA) mixed with 0.8 mg of aluminum hydroxide (Thermo Fischer Scientific, USA) on day 0, 1, 2, and 14, and treated with 2% OVA for 20 minutes using a nebulizer (Pulmo-Aide 5650D; DeVilbiss, USA) on day 14, 17, 21, 24, and 27. The OVA-induced asthmatic mice were intraperitoneally treated with the vehicle (0.5% DMSO in saline) or cyclo Tyr-Val at a dose of 0.11304, 1.1304, 11.304, or 113.04 nmol/kg of body weight per day on day 21 to 27. Airway resistance (Penh) was measured using a whole-body plethysmography (WBP) chamber (Buxco Electronics, USA) after stimulation with methacholine at doses of 0, 10, 20, 30, and 40 mg/ml.

[6] = tested on: OVA-induced asthmatic mice; assay: BALF total cell and eosinophil count in OVA-induced asthmatic mice; format: in vivo, BALB/c mice; conditions: IP 0.11304-113.04 nmol/kg per day, day 21 to 27
Source text: (§3) Given that asthma is characterized by accumulation of immune cells including eosinophils in lung tissues, we studied the effects of cyclo Tyr-Val on BALF cell count, pro-inflammatory cytokine secretion, and antibody production. OVA-induced asthmatic mice (BALB/c) were established according to the method described in Example 2. After the mice were intraperitoneally treated with the vehicle (0.5% DMSO in saline) or cyclo Tyr-Val at a dose of 0.11304, 1.1304, 11.304, or 113.04 nmol/kg of body weight per day on day 21 to 27, BALF and serum were collected. Total cell count in BALF was determined using a hemocytometer; eosinophils were counted after isolation using Cytospin. Protein levels of IL-4, IL-5, and IL-13 in BALF were determined using ELISA. Serum protein levels of OVA-specific antibodies, including IgE, IgG1, and IgG2a, were determined using ELISA (eBioscience).

[7] = tested on: OVA-induced asthmatic mice; assay: IL-4, IL-5, IL-13 protein levels in BALF of OVA-induced asthmatic mice (ELISA); format: in vivo, BALB/c mice; conditions: IP 0.11304-113.04 nmol/kg per day, day 21 to 27
Source text: as §3

[8] = tested on: OVA-induced asthmatic mice; assay: Serum OVA-specific antibodies in OVA-induced asthmatic mice (ELISA); format: in vivo, BALB/c mice; conditions: IP 0.11304-113.04 nmol/kg per day, day 21 to 27
Source text: as §3

[9] = tested on: OVA-induced asthmatic mice; assay: Mode of administration (IP, inhalation, oral) in OVA-induced asthmatic mice; format: in vivo, BALB/c mice; conditions: 11.304 nmol/kg per day, 7 days
Procedure: This example illustrates the effects of the mode of administration of cyclo Tyr-Val on asthmatic mice. OVA-induced asthmatic mice (BALB/c) were established according to the method described in Example 2. On day 21, the mice were treated intraperitoneally (IP), by inhalation (IH), or orally with cyclo Tyr-Val (at a dose of 11.304 nmol/kg of body weight per day) for 7 days, followed by assessment of AHR, total cell count in BALF, and eosinophil count in BALE OVA-induced asthmatic mice that were administered daily with the vehicle (0.5% DMSO in saline) intraperitoneally were used as control. As shown in FIGS. 9A-9C, treatment of OVA-induced asthmatic mice with cyclo Tyr-Val for 7 days via intraperitoneal injection, inhalation, or the oral route reduced AHR, total BALF cell count, and BALF eosinophil accumulation, compared with the vehicle-treated group.

[10] = tested on: OVA-induced asthmatic mice; assay: Treatment after establishment of OVA-induced AHR, comparison with dexamethasone; format: in vivo, BALB/c mice; conditions: IP 11.304 nmol/kg per day, day 28 to 34, after establishment of AHR
Procedure: In this example, the anti-asthmatic effect of cyclo Tyr-Val was compared with those of dexamethasone, a pharmaceutical drug conventionally used to treat asthma. OVA-induced asthmatic mice (BALB/c) were established according to the method described in Example 2. The mice were treated with 2% OVA using a nebulizer on day 30 and 33 and were intraperitoneally treated with the vehicle (0.5% DMSO in saline) or cyclo Tyr-Val (at a dose of 11.304 nmol/kg of body weight per day) on day 28 to 34, followed by measurement of AHR, total cell count in BALF, and eosinophil count in BALF. Another group of OVA-induced asthmatic mice that were treated orally with dexamethasone (at a dose of 3 mg/kg of body weight per day) on day 28 to 34 were used as a positive control.

[11] = Blood biochemical parameters (hepatic and renal functions) in mice; format: in vivo; conditions: IP 11.304 nmol/kg
Procedure: The effects of cyclo Tyr-Val treatment on hepatic and renal functions in mice were evaluated to determine if the compound produces toxic side effects. For these experiments, saline-treated mice (control group) or OVA-induced asthmatic mice were intraperitoneally treated with the vehicle (0.5% DMSO in saline) or cyclo Tyr-Val (at a dose of 11.304 nmol/kg), followed by measurement of blood biochemical parameters, including levels of aspartate transaminase (AST), alanine transaminase (ALT), total bilirubin (T-BIL), albumin (ALB), blood urea nitrogen (BUN), creatinine (CREA), and uric acid (UA). The blood biochemical parameters were monitored using a Hitachi 7080 biochemical analyzer (Hitachi, Japan).

SMILES: CC[C@H](C)[C@@H]1NC(=O)[C@H](Cc2ccc(O)cc2)NC1=O [cyclo Tyr-Ile, cyclo tyrosine-isoleucine, reference compound]
- secretion of pro-inflammatory IL-4 by Th2 cells [1]: failed to inhibit IL-4 secretion

SMILES: CC[C@H](C)[C@@H]1NC(=O)[C@H](C)NC1=O [cyclo Ala-Ile, cyclo alanine-isoleucine, reference compound]
- secretion of pro-inflammatory IL-4 by Th2 cells [1]: failed to inhibit IL-4 secretion

SMILES: CC1NC(=O)C(Cc2ccccc2)NC1=O (stereo not shown) [cyclo Ala-Phe, cyclo alanine-phenylalanine, reference compound]
- secretion of pro-inflammatory IL-4 by Th2 cells [1]: failed to inhibit IL-4 secretion

SMILES: CC(C)C[C@@H]1NC(=O)[C@H](C)NC1=O [cyclo Ala-Leu, cyclo alanine-leucine, reference compound]
- secretion of pro-inflammatory IL-4 by Th2 cells [1]: failed to inhibit IL-4 secretion

SMILES: CC(C)CC1NC(=O)C(Cc2ccc(O)cc2)NC1=O (stereo not shown) [cyclo Tyr-Leu, cyclo tyrosine-leucine]
- secretion of pro-inflammatory IL-4 by Th2 cells [1]: inhibited IL-4 to some extent

- IC50 ([1]; Mus musculus, 72 h, Th2 cells from BALB/c mice, read-out: IC50, inhibition of IL-4 secretion): 26.4 nM
- IC90 ([1]; Mus musculus, 72 h, Th2 cells from BALB/c mice, read-out: IC90, inhibition of IL-4 secretion): 252 nM
- IC50 ([2]; Mus musculus, 72 h, Th2 cells from C57BL/6J mice, read-out: IC50, inhibition of IL-4 secretion): 45.1 nM
- IC90 ([2]; Mus musculus, 72 h, Th2 cells from C57BL/6J mice, read-out: IC90, inhibition of IL-4 secretion): 357 nM
- ALB ([11]; OVA-induced asthmatic mice): 2.737 ± 0.322 g/dL
- BUN ([11]; OVA-induced asthmatic mice): 25.864 ± 2.638 mg/dL
- CREA ([11]; OVA-induced asthmatic mice): 0.250 ± 0.078 mg/dL
- T-BIL ([11]; OVA-induced asthmatic mice): 26.508 ± 2.454 µg/dL
- UA ([11]; OVA-induced asthmatic mice): 2.690 ± 0.275 mg/dL
- hepatic or renal functions ([11]; control and OVA-induced asthmatic mice): did not significantly affect
- ALB ([11]; control mice): 2.669 ± 0.480 g/dL
- BUN ([11]; control mice): 26.588 ± 2.756 mg/dL
- CREA ([11]; control mice): 0.236 ± 0.124 mg/dL
- T-BIL ([11]; control mice): 26.169 ± 3.536 µg/dL
- UA ([11]; control mice): 2.979 ± 0.412 mg/dL
SMILES: CC(C)C1NC(=O)C(Cc2ccc(O)cc2)NC1=O (stereo not shown) [cyclo Tyr-Val, cyclo tyrosine-valine]
- secretion of IL-4 ([1]; 0.25 μM): inhibited
- secretion of pro-inflammatory IL-4 by Th2 cells [1]: significantly inhibited
- IL-4 secretion, dose dependence ([1]; various concentrations, BALB/c Th2 cells): inhibited IL-4 secretion in a dose-dependent manner
- IL-4 secretion, dose dependence ([2]; various concentrations, C57BL/6J Th2 cells): inhibited IL-4 secretion in a dose-dependent manner
- cytotoxic effects on cultured Th2 cells (viability) (Th2 cells): no cytotoxic effects
- secretion of IL-5 [3]: inhibited
- secretion of IL-13 [4]: inhibited
- OVA-induced AHR (airway resistance, Penh) [5]: inhibited OVA-induced AHR in a dose-dependent manner
- OVA-induced cell infiltration in BALF (total cell count) [6]: reduced
- OVA-induced eosinophilia in BALF [6]: reduced
- OVA-induced secretion of IL-4 in BALF [7]: reduced
- OVA-induced secretion of IL-5 in BALF [7]: reduced
- OVA-induced secretion of IL-13 in BALF [7]: reduced
- OVA-specific IgE production in sera [8]: dose-dependently reduces
- OVA-specific IgG1 production in sera [8]: dose-dependently reduces
- OVA-specific IgG2a production in sera [8]: dose-dependently reduces
- AHR ([9]; inhalation): reduced
- BALF eosinophil accumulation ([9]; inhalation): reduced
- total BALF cell count ([9]; inhalation): reduced
- AHR ([9]; intraperitoneal injection): reduced
- BALF eosinophil accumulation ([9]; intraperitoneal injection): reduced
- total BALF cell count ([9]; intraperitoneal injection): reduced
- AHR ([9]; oral route): reduced
- BALF eosinophil accumulation ([9]; oral route): reduced
- total BALF cell count ([9]; oral route): reduced
- AHR [10]: significantly reduced
- BALF eosinophil accumulation [10]: significantly reduced
- BALF total cell count [10]: significantly reduced
- ALT ([11]; OVA-induced asthmatic mice): 26.673 ± 2.279 U/l
- AST ([11]; OVA-induced asthmatic mice): 69.718 ± 4.115 U/l
- ALT ([11]; control mice): 26.283 ± 2.813 U/l
- AST ([11]; control mice): 70.775 ± 3.056 U/l

Reference: patent US20190183960A1, “METHOD TO TREAT ASTHMA AND AIRWAY ALLERGY USING CYCLO TYROSINE-VALINE AND RELATED COMPOUNDS” (Chang Gung Biotechnology Corp., priority 2017, published 2019)
